Measured values as given in patent US20260008758A1, “LINEAR DIPEPTIDYL PEPTIDASE 1 INHIBITORS AND USES THEREOF” (Insmed Incorporated, priority 2024, published 2026).

How the values were obtained:
human DPP1 enzyme = human DPP1 enzyme (Homo sapiens (Human), UniProt P53634); assay: Human DPP1 enzyme IC50 assay; type: biochemical; conditions: recombinant human DPP1, H-Gly-Arg-AMC substrate 400 μM
Procedure, shortened: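 Fluorogenic readout (350/450 nm, every 5 min over 90 min, 37°C) of H-Gly-Arg-AMC cleavage at 400 μM final substrate. Compounds met activated DPP1 first for a 10-min 37°C pre-incubation in MES buffer pH 6.0 with DTT, 1% DMSO final. Four-parameter sigmoidal fit gave IC50.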

active mouse DPP1 enzyme = active mouse DPP1 enzyme (Mus musculus (Mouse), UniProt P97821); assay: Mouse DPP1 enzyme IC50 assay; type: biochemical; conditions: active mouse DPP1, H-Gly-Arg-AMC substrate 400 μM
Protocol: 25 μL of compound in Assay Buffer plus 5% DMSO was first added to 50 μL of active mouse DPP1 enzyme at a concentration of 62.5 pg/μL and allowed to pre-incubate for 10 minutes at 37° C. after which 50 μL of 1000 μM H-Gly-Arg-AMC substrate (Bachem; St. Torrance, CA) was added, giving final substrate concentration of 400 μM and a final DMSO concentration of 1%. Substrate cleavage was measured for 90 minutes at 37° C., with fluorescence at Excitation/Emission 350/450 nm measured every 5 minutes. DPP1 concentration was interpolated based on its activity relative to a standard curve of recombinant active mouse DPP1 enzyme. IC50 values for each compound were calculated via the XLFit (IDBS Version 5.3.1.3) Add-On to Microsoft Excel using the four parameter fit equation y=(A+((B-A)/(1+((C/x)^D)))), which appears as equation number 205 (4 Parameter Logistic Model or Sigmoidal Dose-Response Model) in XLFit. Default constraints were used for each Parameter.

DPP1 in HL-60 cells = DPP1 in HL-60 cells (Homo sapiens (Human), UniProt P53634); assay: DPP1 Cell IC50 assay; type: cell-based; conditions: H-Gly-Phe-AFC substrate, 60 min pre-incubation
Procedure, shortened: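 HL-60 cells (5×10^5 live cells/mL in PBS) were pre-incubated with compound in 0.5% DMSO for 60 min at 37 °C, 5% CO2, with shaking, then given 500 μM H-Gly-Phe-AFC solution for 30 min. Fluorescence was read at 400/505 nm. % inhibition was taken against vehicle wells, and IC50 came from a four-parameter logistic fit.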

Sequence of human DPP1 enzyme (P53634 25-134): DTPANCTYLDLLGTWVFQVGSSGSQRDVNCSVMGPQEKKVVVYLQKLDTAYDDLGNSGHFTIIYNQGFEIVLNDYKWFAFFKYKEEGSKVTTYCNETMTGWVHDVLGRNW
Sequence of human DPP1 enzyme (P53634 231-394): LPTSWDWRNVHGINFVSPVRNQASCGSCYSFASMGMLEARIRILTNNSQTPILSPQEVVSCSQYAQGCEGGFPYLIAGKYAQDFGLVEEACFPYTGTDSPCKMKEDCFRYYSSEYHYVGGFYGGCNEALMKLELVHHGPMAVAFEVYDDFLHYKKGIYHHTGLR
Sequence of human DPP1 enzyme (P53634 395-463): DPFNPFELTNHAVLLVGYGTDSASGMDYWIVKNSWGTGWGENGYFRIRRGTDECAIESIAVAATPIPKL
Sequence of DPP1 in HL-60 cells (P53634 25-134): as the sequence (P53634 25-134) above
Sequence of DPP1 in HL-60 cells (P53634 231-394): as the sequence (P53634 231-394) above
Sequence of DPP1 in HL-60 cells (P53634 395-463): as the sequence (P53634 395-463) above
Sequence of active mouse DPP1 enzyme (P97821 25-134): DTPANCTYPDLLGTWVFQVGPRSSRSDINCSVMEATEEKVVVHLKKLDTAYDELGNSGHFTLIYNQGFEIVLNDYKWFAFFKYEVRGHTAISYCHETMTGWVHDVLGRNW
Sequence of active mouse DPP1 enzyme (P97821 231-393): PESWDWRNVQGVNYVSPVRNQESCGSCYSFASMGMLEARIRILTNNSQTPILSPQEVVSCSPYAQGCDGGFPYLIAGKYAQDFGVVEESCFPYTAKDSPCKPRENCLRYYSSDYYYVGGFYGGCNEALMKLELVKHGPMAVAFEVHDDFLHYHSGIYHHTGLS
Sequence of active mouse DPP1 enzyme (P97821 394-462): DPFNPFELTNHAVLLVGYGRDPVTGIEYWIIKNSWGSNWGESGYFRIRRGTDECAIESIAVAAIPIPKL

Row | IC50 (human DPP1 enzyme) [nM] | IC50 (active mouse DPP1 enzyme) [nM] | IC50 (DPP1 in HL-60 cells) [nM] | Structure (SMILES)
1 | 5 to 15 | 5 to 20 | ≥ 2.5 | C[C@H](O)[C@@](C)(N)C(=O)N[C@H](C#N)Cc1ccc(-c2ccc3oc(=O)n(C)c3c2)cc1 [Compound 171D, (2R,3S)-2-amino-N-[(1S)-1-cyano-2-[4-(3-methyl-2-oxo-1,3-benzoxazol-5-yl)phenyl]ethyl]-3-hydroxy-2-methylbutanamide]
2 | ≥ 15 | ≤ 5 | ≥ 2.5 | CN(C)C[C@H](O)C(=O)N[C@H](C#N)Cc1ccc(-c2ccc3c(c2)C2(CN(C)C2)OC3=O)cc1 [Compound 137, (S)—N—((S)-1-cyano-2-(4-(1-methyl-3′-oxo-3′H-spiro[azetidine-3,1′-isobenzofuran]-6′-yl)phenyl)ethyl)-3-(dimethylamino)-2-hydroxypropanamide]
3 | ≥ 15 | 5 to 20 | 1 to 2.5 | CN(C)C[C@H](O)C(=O)N[C@H](C#N)Cc1ccc(-c2ccc3oc(=O)n(C)c3c2)cc1 [Compound 101, (2S)—N-[(1S)-1-cyano-2-[4-(3-methyl-2-oxo-1,3-benzoxazol-5-yl)phenyl]ethyl]-3-(dimethylamino)-2-hydroxypropanamide]
4 | ≥ 15 | ≥ 20 | – | CN(C)CC(=O)N[C@H](C#N)Cc1ccc(-c2ccc3oc(=O)n(C)c3c2)cc1 [Compound 158]
5 | ≥ 15 | ≥ 20 | – | CN[C@@H](C)C(=O)N[C@H](C#N)Cc1ccc(-c2ccc3oc(=O)n(C)c3c2)cc1 [Compound 154]
6 | ≥ 15 | 5 to 20 | – | CC(O)CNCC(=O)N[C@@H](C#N)Cc1ccc(-c2ccc3oc(=O)n(C)c3c2)cc1 (some centres unmarked) [compound 175]
7 | ≥ 15 | ≥ 20 | – | CN[C@H](C)C(=O)N[C@H](C#N)Cc1ccc(-c2ccc3oc(=O)n(C)c3c2)cc1 [Compound 152, (R)—N—((S)-1-cyano-2-(4-(3-methyl-2-oxo-2,3-dihydrobenzo[d]oxazol-5-yl)phenyl)ethyl)-2-(methylamino)propanamide]
8 | ≥ 15 | ≥ 20 | – | CC(CN)C(=O)N[C@H](C#N)Cc1ccc(-c2ccc3oc(=O)n(C)c3c2)cc1 (some centres unmarked) [Compound 161]
9 | ≥ 15 | ≥ 20 | – | CC(O)C(=O)N[C@H](C#N)Cc1ccc(-c2ccc3oc(=O)n(C)c3c2)cc1 (some centres unmarked) [Compound 242]
10 | ≥ 15 | ≥ 20 | – | CC(N)CC(=O)N[C@H](C#N)Cc1ccc(-c2ccc3oc(=O)n(C)c3c2)cc1 (some centres unmarked) [Compound 160]

The next lines start with the molecule.

Row | Structure (SMILES) | IC50 (human DPP1 enzyme) [nM] | IC50 (active mouse DPP1 enzyme) [nM] | IC50 (DPP1 in HL-60 cells) [nM]
11 | Cn1c(=O)oc2ccc(-c3ccc(C[C@@H](C#N)NC(=O)C[C@H](N)Cc4ccccc4)cc3)cc21 [Compound 187] | ≥ 15 | ≥ 20 | –
12 | Cn1c(=O)oc2ccc(-c3ccc(C[C@@H](C#N)NC(=O)COC(=O)c4cccs4)cc3)cc21 [Compound 245, (S)-2-((1-cyano-2-(4-(3-methyl-2-oxo-2,3-dihydrobenzo[d]oxazol-5-yl)phenyl)ethyl)amino)-2-oxoethyl thiophene-2-carboxylate] | – | ≥ 20 | –
13 | Cn1c(=O)oc2ccc(-c3ccc(C[C@@H](C#N)NC(=O)C[C@H](N)Cc4cccs4)cc3)cc21 [Compound 182, (3S)-3-amino-N-[(1S)-1-cyano-2-[4-(3-methyl-2-oxo-2,3-dihydro-1,3-benzoxazol-5-yl)phenyl]ethyl]-4-(thiophen-2-yl)butanamide] | ≥ 15 | ≥ 20 | ≥ 2.5
14 | Cn1c(=O)oc2ccc(-c3ccc(C[C@@H](C#N)NC(=O)CCC#N)cc3)cc21 [Compound 241] | ≥ 15 | ≥ 20 | –
15 | Cn1c(=O)oc2ccc(-c3ccc(C[C@@H](C#N)NC(=O)CNC(=O)c4ccco4)cc3)cc21 [Compound 240, N-[(1S)-1-cyano-2-[4-(3-methyl-2-oxo-1,3-benzoxazol-5-yl)phenyl]ethyl]-2-(furan-2-ylformamido)acetamide] | ≥ 15 | ≥ 20 | –
16 | Cn1c(=O)oc2ccc(-c3ccc(C[C@@H](C#N)NC(=O)C[C@@H](N)Cc4ccccc4)cc3)cc21 [Compound 186] | ≥ 15 | ≥ 20 | –
17 | Cn1c(=O)oc2ccc(-c3ccc(C[C@@H](C#N)NC(=O)CC(N)Cc4ccsc4)cc3)cc21 (some centres unmarked) [Compound 185] | ≥ 15 | ≥ 20 | –
18 | Cn1c(=O)oc2ccc(-c3ccc(C[C@@H](C#N)NC(=O)CC(N)CCc4ccccc4)cc3)cc21 (some centres unmarked) [Compound 183] | ≥ 15 | ≥ 20 | –
19 | Cn1c(=O)oc2ccc(-c3ccc(C[C@@H](C#N)NC(=O)CC(N)C(F)F)cc3)cc21 (some centres unmarked) [Compound 166] | ≥ 15 | ≥ 20 | –
20 | Cn1c(=O)oc2ccc(-c3ccc(C[C@@H](C#N)NC(=O)CC(N)Cc4ccccc4)cc3)cc21 (stereo partly drawn) [Compound 184, 3-amino-N-[(1S)-1-cyano-2-[4-(3-methyl-2-oxo-2,3-dihydro-1,3-benzoxazol-5-yl)phenyl]ethyl]-4-phenylbutanamide] | ≥ 15 | ≥ 20 | –
21 | Cn1c(=O)oc2ccc(-c3ccc(C[C@@H](C#N)NC(=O)COC(=O)c4ccco4)cc3)cc21 [Compound 243, {[(1S)-1-cyano-2-[4-(3-methyl-2-oxo-1,3-benzoxazol-5-yl)phenyl]ethyl]carbamoyl}methyl furan-2-carboxylate] | ≥ 15 | ≥ 20 | –
22 | Cn1c(=O)oc2ccc(-c3ccc(C[C@@H](C#N)NC(=O)CCNC(=O)c4cccs4)cc3)cc21 [Compound 238, N-[(1S)-1-cyano-2-[4-(3-methyl-2-oxo-1,3-benzoxazol-5-yl)phenyl]ethyl]-3-(thiophen-2-ylformamido)propanamide] | ≥ 15 | ≥ 20 | –
23 | C=CC[C@H](N)CC(=O)N[C@H](C#N)Cc1ccc(-c2ccc3oc(=O)n(C)c3c2)cc1 [Compound 163] | ≥ 15 | ≥ 20 | –
24 | Cn1c(=O)oc2ccc(-c3ccc(C[C@@H](C#N)NC(=O)CCOC(=O)c4cccs4)cc3)cc21 [Compound 244, 2-{[(1S)-1-cyano-2-[4-(3-methyl-2-oxo-1,3-benzoxazol-5-yl)phenyl]ethyl]carbamoyl}ethyl thiophene-2-carboxylate] | – | ≥ 20 | –
25 | Cn1c(=O)oc2ccc(-c3ccc(C[C@@H](C#N)NC(=O)C[C@@H](N)Cc4cccs4)cc3)cc21 [Compound 181] | ≥ 15 | ≥ 20 | –
26 | CNCCC(=O)N[C@H](C#N)Cc1ccc(-c2ccc3oc(=O)n(C)c3c2)cc1 [Compound 156] | ≥ 15 | ≥ 20 | –
27 | Cn1c(=O)oc2ccc(-c3ccc(C[C@@H](C#N)NC(=O)CCC(N)=O)cc3)cc21 [Compound 153] | ≥ 15 | ≥ 20 | –
28 | Cn1c(=O)oc2ccc(-c3ccc(C[C@@H](C#N)NC(=O)CC(N)C(N)=O)cc3)cc21 (some centres unmarked) [Compound 159] | ≥ 15 | ≥ 20 | –
29 | Cn1c(=O)oc2ccc(-c3ccc(C[C@@H](C#N)NC(=O)C(C)(C)CN)cc3)cc21 [Compound 155] | ≥ 15 | ≥ 20 | –
30 | Cn1c(=O)oc2ccc(-c3ccc(C[C@@H](C#N)NC(=O)CCN)cc3)cc21 [Compound 157] | ≥ 15 | ≥ 20 | –
31 | CCC(N)CC(=O)N[C@H](C#N)Cc1ccc(-c2ccc3oc(=O)n(C)c3c2)cc1 (some centres unmarked) [Compound 162] | ≥ 15 | ≥ 20 | –
32 | Cn1c(=O)oc2ccc(-c3ccc(C[C@@H](C#N)NC(=O)CNC(=O)c4cccs4)cc3)cc21 [Compound 239, N-[(1S)-1-cyano-2-[4-(3-methyl-2-oxo-1,3-benzoxazol-5-yl)phenyl]ethyl]-2-(thiophen-2-ylformamido)acetamide] | – | ≥ 20 | –
